The results in this text go back to US9403944B2, “Antipathogenic guanidinium copolymer” (priority 2012, dated 2016).

For assay [1], the system named is Staphylococcus aureus ATCC 6538. Nature of the assay: Coated coupon surface antimicrobial test, Staphylococcus aureus. Type of assay: cell-based. Conditions: Stainless Steel 2″ × 2″ coupons, tested by Applicant, challenged with 1.1 × 10^7 bacteria; copolymer 0.0299 g/m2, Aegis 2.36 g/m2. How it is done: (§1) The silylated copolymer of Example II hereinabove was dissolved in isopropanol (IPA) to give a 30% w/v (IPA) solution. This IPA solution was then diluted to a 0.1% w/v concentration with additional IPA solvent.
(§2) 2″×2″ test coupons of Formica and 316 Stainless Steel were first washed with soap and water then wiped with a 70 wt. % aqueous ethanol solution and dried. The copolymer 2600 solution was applied via misting onto the coupon surfaces using a Preval sprayer. The surfaces of the coupons were sprayed until completely covered by the copolymer solution and then dried horizontally for >3 hr. at room temperature. Control coupons were sprayed with 30 wt. % aqueous IPA solution followed by drying under identical conditions. The final areal concentration of the dried copolymer on the test coupon surface was 0.0299 g/m2. All coupons were then irradiated with a C wavelength germicidal Ultraviolet Lamp (UVC) situated within a biosafety cabinet. […]
Antimicrobial; testing was performed by Applicant and independently by Professor. Charles Gerba, Ph.D. As a control, Applicant also determined the antimicrobial properties of a material sold in commerce by Aegis under the tradename AEM 5772-5.

For assay [2], the system named is Klebsiella pneumoniae ATCC 4352. Nature of the assay: Coated coupon surface antimicrobial test, Klebsiella pneumoniae. The following applies: Stainless Steel 2″ × 2″ coupons, tested by Applicant, challenged with 3.8 × 10^7 bacteria; copolymer 0.0299 g/m2, Aegis 2.36 g/m2. Format: cell-based. The protocol: as §1, §2
Antimicrobial; testing was performed by Applicant and independently by Professor. Charles Gerba, Ph.D. As a control, Applicant also determined the antimicrobial properties of a material sold in commerce by Aegis under the tradename AEM 5772-5. […]

Molecules are shown by their SMILES.

With `CCCCCCCCCCCCCCCCCC[N+](C)(C)CCC[Si](O)(O)O.[Cl-]` [Aegis Quaternary Ammonium Silane, 3-(trihydroxysilyl) propyldimethyloctadecyl ammonium chloride], in assay [1], the “Ave. Log10 Reduction ± SD v. control 10 min exposure” value is listed as 0.00 log10. Further, the “Ave. Log10 Reduction ± SD v. control 12 min exposure” value in assay [2] worked out at 1.15 ± 0.26 log10.
